According to US5707648A, “Transparent liquid for encapsulated drug delivery” (LDS Technologies, Inc., priority 1995, dated 1998):

Key:
plasma Factor VIII = assay: Plasma Factor VIII levels following administration of dDAVP (dDAVP Dog Study); format: in vivo, Male beagle dogs; conditions: dogs; capsules with 13, 43 and 125 μg dDAVP, dDAVP in dextrose, or s.c. 0.4 μg/kg
Method: Male beagle dogs weighing 9-12 kg were used in all experiments. Prior to each study, all animals were fasted overnight but were allowed access to water ad libitum.
Peroral administration: Enteric coated hard gelatin capsules, size 0el (0.78 ml) from [sequence], fill materials: 0.73 g of the drug delivery compositions containing:
Subcutaneous administration: 4 μg dDAVP/ml composition, 0.4 μg dDAVP/kg animal (Table 6F).
Plasma Factor VIII levels following administration of dDAVP was used as a pharmacodynamic response to the drug. Maximum response to dDAVP was determined by measuring plasma Factor VIII response levels following subcutaneous administration of dDAVP (Table 6F).
For studies involving capsule administration, a single capsule was given to each animal in each study. Blood samples were taken immediately prior to dDAVP administration (t=0), and at various times thereafter. Plasma levels of Factor VIII were determined using commercially available kits.

[1] = compared with AVP or LVP; cited from earlier work
[2] = human, in vivo; cited from earlier work
[3] = test system: delta-class of opioid receptor; conditions: Vaughn et al. 1989; cited from earlier work
[4] = Chemical stability of calcitonin in the formulation; format: physicochemical; conditions: formulation of Table 7.1

Compound: NC(=O)CC[C@@H]1NC(=O)[C@H](Cc2ccccc2)NC(=O)[C@H](Cc2ccc(O)cc2)NC(=O)CCSSC[C@@H](C(=O)N2CCC[C@H]2C(=O)N[C@H](CCCN=C(N)N)C(=O)NCC(N)=O)NC(=O)[C@H](CC(N)=O)NC1=O [desmopressin]
- response in plasma Factor VIII levels (in words) (plasma Factor VIII): dose-dependent increase in plasma Factor VIII levels
- pressor (vasoconstricting) activities [1]: lacks the pressor (vasoconstricting) activities of AVP or LVP
- oral bioavailability [2]: 0.1-0.2%

Compound: [D-Pen^2,5, PCl-Phe^4 ]-enkephalin
- interaction with the delta-class of opioid receptor [3]: interacts selectively with the delta-class of opioid receptor

Compound: calcitonin
- chemical stability of calcitonin in the formulation [4]: chemically stable in this formulation for at least two months
